Data: patent US9107415B2, “2-(substituted-phenyl)-cyclopentane-1,3-dione compounds, and derivatives thereof” (Syngenta Limited, priority 2011, dated 2015)

Legend:
Assay type in all cases: in vivo
[1] = tested on: Echinochloa crus-galli (ECHCG); assay: Biological Example 1 glasshouse screen, post-emergence herbicidal activity; conditions: 312 h, read-out: ECHCG percentage phytotoxicity
Method in brief: (§1)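 Potted test species received a foliar or soil spray of active ingredient in acetone/water (50:50), 0.5% Tween 20, at 1 or 8 days after sowing for pre- and post-emergence respectively. Percentage phytotoxicity was assessed by eye after 13 days.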

[2] = tested on: Alopecurus myosuroides (ALOMY); assay: as above; conditions: 312 h, read-out: ALOMY percentage phytotoxicity
Method in brief: as §1

[3] = tested on: grassy monocotyledonous weeds such as Lolium, Alopecurus, Echinochloa and/or Avena; assay: Post-emergence herbicidal activity on grassy monocotyledonous weeds, summary statements (Biological Examples 1 to 4)
[4] = tested on: Alopecurus myosuroides (ALOMY); assay: Biological Example 4A (previously-formulated compounds) post-emergence herbicidal activity on grassy weeds; conditions: 14 DAA, EC formulation, mean of two
Experimental: (§2) Seeds of a variety of test species are sown in standard soil in pots. After cultivation for 14 days under controlled conditions in a glasshouse (at 22/16°C., day/night; 16 hours light; 65% humidity), the plants are sprayed with the test compounds. The test plants are then grown on under controlled conditions in the glasshouse (at 22/16°C., day/night; 16 hours light; 65% humidity) and are watered twice daily. After 14 days the test is evaluated visually (100%=total damage to plant; 0%=no damage to plant). Post-emergence herbicidal activity (phytotoxicity) data, on certain grassy monocotyledonous weeds and cereal crops in a glasshouse, are measured 14 days after application of the herbicide (14 DAA), inter alia for post-emergence application rates of 30 or 60 g/ha of the test herbicide, with or without 50 g/ha of cloquintocet-mexyl safener applied at substantially the same time as the herbicide.
(§3) Herbicidal activity (phytotoxicity) is evaluated visually, and an assessed percentage phytotoxicity score is given for each herbicidal application on each plant species (with 100%=total damage to plant; 0%=no damage to plant). Two repetitions are made for each experiment and the mean herbicidal activity (phytotoxicity) data is reported.
(§4) Biological Example 4A is used on previously-formulated compounds, typically compounds previously formulated as an emulsifiable concentrates (EC), wherein the EC contains the herbicidal compound under test dissolved in one or more organic solvents, and wherein the EC also contains one or more surfactants or emulsifiers. In the test method, the EC containing the herbicide (plus a cloquintocet-mexyl formulation if this is also present) is generally diluted with water to form an emulsion, and the resulting emulsion is sprayed onto the emerged weed and/or crop plants.
(§5) For the testing of Compounds A-5 and A-6, each of these compounds was separately formulated into an emulsifiable concentrate containing 10% w/w of the herbicidal compound, 9% w/w of castor oil ethoxylate (an emulsifier, present as Emulsogen™EL360), 6% w/w of calcium dodecylbenzenesulfonate (linear) (an emulsifier, present as Nansa™EVM 63B), 3% w/w of tristyrylphenol ethoxylate having 16 moles of ethoxylation per mole of molecule (an emulsifier, present as Soprophor™BSU), 10% w/w of benzyl benzoate (as solvent), 20% w/w of 1-methyl-2-pyrrolidone (as solvent), and the remainder of N-octyl-2-pyrrolidone (as solvent). The solvents and surfactants/emulsifiers were first mixed together, to form a “blank” EC, and the herbicidal compound was then added to and dissolved in this solvent and emulsifier mixture to prepare the emulsifiable concentrate, to give an EC formulation/composition containing approximately 100 g/L of active herbicidal compound.
(§6) In the tests of Compounds A-5 and A-6, the cloquintocet-mexyl was pre-formulated as a formulation/composition containing 10% w/w cloquintocet-mexyl, 6% w/w Emulsogen™ EL360 (as emulsifier), 4% w/w Nansa™EVM 63B (as wetting agent), 1% w/w Drapex™39 (epoxidised soybean oil), 20% w/w 1-methyl-2-pyrrolidone (as solvent), and the remainder as Solvesso™200ND (a mixture of heavy aromatic hydrocarbons, as a solvent).
(§7) Test plants: Avena fatua (AVEFA), Lolium multiflorum (LOLMU), Setaria viridis (SETVI), Poa annua (POAAN), Alopecurus myosuroides (ALOMY). All five of these are grassy monocotyledonous weeds.

[5] = tested on: Lolium multiflorum (LOLMU); assay: as above; conditions: 14 DAA, EC formulation, mean of two
Experimental: as §2, §3, §4, §5, §6, §7

[6] = tested on: Poa annua (POAAN); assay: as above; conditions: 14 DAA, EC formulation, mean of two
Experimental: as §2, §3, §4, §5, §6, §7

[7] = tested on: Avena fatua (AVEFA); assay: as above; conditions: 14 DAA, EC formulation, mean of two
Experimental: as §2, §3, §4, §5, §6, §7

[8] = tested on: Setaria viridis (SETVI); assay: as above; conditions: 14 DAA, EC formulation, mean of two
Experimental: as §2, §3, §4, §5, §6, §7

[9] = tested on: Winter Barley “Suzuka”; assay: Biological Example 4A post-emergence phytotoxicity on cereal crops; conditions: 14 DAA, EC formulation, mean of two
Experimental: as §2, §3, §4, §5, §6

[10] = tested on: Spring Wheat “Teal”; assay: as above; conditions: 14 DAA, EC formulation, mean of two
Experimental: as §2, §3, §4, §5, §6

[11] = tested on: Spring Barley “Harrington”; assay: as above; conditions: 14 DAA, EC formulation, mean of two
Experimental: as §2, §3, §4, §5, §6

[12] = tested on: Winter Wheat “Hereward”; assay: as above; conditions: 14 DAA, EC formulation, mean of two
Experimental: as §2, §3, §4, §5, §6

[13] = tested on: Lolium perenne (LOLPE); assay: Biological Example 1 glasshouse screen, post-emergence herbicidal activity; conditions: 312 h, read-out: LOLPE percentage phytotoxicity
Method in brief: (§8)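 Pots in a glasshouse (24/16°C day/night, 14 h light, 65% humidity) were sprayed one day after sowing (pre-emergence) or after 8 days (post-emergence), using acetone/water (50:50) with 0.5% Tween 20. Phytotoxicity was scored visually as % damage (0-100) 13 days after application.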

[14] = tested on: Avena fatua (AVEFA); assay: as above; conditions: 312 h, read-out: AVEFA percentage phytotoxicity
Method in brief: as §8

[15] = 30 g/ha, cloquintocet-mexyl 0 g/ha
[16] = 30 g/ha, cloquintocet-mexyl 50 g/ha
[17] = 60 g/ha, cloquintocet-mexyl 0 g/ha
[18] = 60 g/ha, cloquintocet-mexyl 50 g/ha

SMILES: CC#Cc1cc(C)c(C2C(=O)C[C@@H](Cc3ccccn3)C2=O)c(C)c1 (some centres unmarked) [Compound A-6]
- pest or weed control at 250 g/ha [1]: 100%
- pest or weed control at 250 g/ha [2]: 100%
- post-emergence herbicidal activity against grassy monocotyledonous weeds, in words [3]: more potent herbicidal activity
- ALOMY % phytotoxicity [4, 15]: 100%
- ALOMY % phytotoxicity [4, 16]: 100%
- ALOMY % phytotoxicity [4, 17]: 100%
- ALOMY % phytotoxicity [4, 18]: 100%
- LOLMU % phytotoxicity [5, 15]: 100%
- LOLMU % phytotoxicity [5, 16]: 100%
- LOLMU % phytotoxicity [5, 17]: 100%
- LOLMU % phytotoxicity [5, 18]: 100%
- POAAN % phytotoxicity [6, 15]: 65%
- POAAN % phytotoxicity [6, 16]: 48%
- POAAN % phytotoxicity [6, 17]: 94%
- POAAN % phytotoxicity [6, 18]: 85%
- AVEFA % phytotoxicity [7, 15]: 98%
- AVEFA % phytotoxicity [7, 16]: 90%
- AVEFA % phytotoxicity [7, 17]: 100%
- AVEFA % phytotoxicity [7, 18]: 99%
- SETVI % phytotoxicity [8, 15]: 100%
- SETVI % phytotoxicity [8, 16]: 100%
- SETVI % phytotoxicity [8, 17]: 100%
- SETVI % phytotoxicity [8, 18]: 100%
- Winter Barley “Suzuka” phytotoxicity (%) [9, 15]: 93%
- Winter Barley “Suzuka” phytotoxicity (%) [9, 16]: 10%
- Winter Barley “Suzuka” phytotoxicity (%) [9, 17]: 98%
- Winter Barley “Suzuka” phytotoxicity (%) [9, 18]: 25%
- Spring Wheat “Teal” phytotoxicity (%) [10, 15]: 78%
- Spring Wheat “Teal” phytotoxicity (%) [10, 16]: 25%
- Spring Wheat “Teal” phytotoxicity (%) [10, 17]: 94%
- Spring Wheat “Teal” phytotoxicity (%) [10, 18]: 45%
- Spring Barley “Harrington” phytotoxicity (%) [11, 15]: 95%
- Spring Barley “Harrington” phytotoxicity (%) [11, 16]: 13%
- Spring Barley “Harrington” phytotoxicity (%) [11, 17]: 98%
- Spring Barley “Harrington” phytotoxicity (%) [11, 18]: 48%
- Winter Wheat “Hereward” phytotoxicity (%) [12, 15]: 65%
- Winter Wheat “Hereward” phytotoxicity (%) [12, 16]: 15%
- Winter Wheat “Hereward” phytotoxicity (%) [12, 17]: 80%
- Winter Wheat “Hereward” phytotoxicity (%) [12, 18]: 20%
- pest or weed control at 250 g/ha [13]: 100%
- pest or weed control at 250 g/ha [14]: 100%
